# Measured values as given in US6784176B2, “Solvates of pymetrozine” (priority 1999, dated 2004).
# Test: Reversible water uptake and release of pymetrozine at defined relative humidity
# Assay type: physicochemical
# Conditions: room temperature
# Excerpt: The above-mentioned water content of 16 to 17% by weight corresponds very well to a dihydrate. Even pesticidal formulations that contain water-free and solvent-free pymetrozine take up usually water or the corresponding solvent from the atmosphere when left to stand under sufficiently high vapour pressure.
smiles,measurement,setting,value
CC1=NNC(=O)N(/N=C/c2cccnc2)C1 [pymetrozine],water taken up,relative humidity between 60% and 70%,16 to 17 % by weight
same,water release,"relative humidity of less than ca. 10%, water-containing pymetrozine",gives up the water completely
